Laboratory results from the METLIN SMRT retention time set (Domingo-Almenara et al. 2019).

assay: gradient 5% acetonitrile 3 min, to 50% in 2 min, to 85% in 15 min, held 3 min, 100 µL/min; conditions: column: Zorbax Extend-C18 2.1 x 50 mm; eluents: water / acetonitrile, 0.1% formic acid
Method in brief: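 Values are retention times taken from adduct peaks that software picked and an analyst inspected. The pure standards were run as mixtures of ~100 molecules on HPLC linked to a quadrupole time-of-flight mass spectrometer, in positive and negative ionization mode. A Zorbax Extend-C18 column (2.1 × 50 mm, 1.8 μm) was used at 100 μL/min with water and acetonitrile, each including 0.1% formic acid.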

RP-LC retention time | SMILES
742 s | COc1ccc(CCc2nc3cc(-c4c(C)noc4C)ccc3n2C[C@H](C)N2CCOCC2)cc1Cl
838 s | O=c1ccn(-c2ccc(F)cc2)nc1-c1nc(-c2ccccc2F)no1
585 s | Cc1ccc2cc(CN3C[C@@H](CO)[C@H](c4ccccn4)C3)c(=O)[nH]c2c1
596 s | CCOC(=O)c1c(C)oc2nc(C)nc(NCCCN3CCN(c4ccccc4OC)CC3)c12
1010 s | c1cc(-c2noc(C3CCCCC3)n2)cc(N2CCOCC2)n1
732 s | CCCn1cc(CCNC(=O)c2ccc(F)cc2)c2cccnc21
704 s | COc1cc(NC(=O)NCCc2nc3cccnc3n2C2CCCC2)cc(OC)c1
602 s | CNC(=O)[C@@H]1CN(C(=O)NCc2ccco2)C[C@H]1c1nc(C)no1
924 s | Cc1ccc(-c2cn3ccn(-c4ccc(F)c(F)c4)c(=O)c3n2)c(C)c1
602 s | CCCNC(=O)N1CCN(c2nc3c(s2)CN(C(=O)CC)CC3)CC1
930 s | Cc1ccc(-c2csc(NC(=O)Cc3csc(C)n3)n2)cc1
756 s | CCC(C)NC(=O)CS(=O)Cc1cnn(-c2ccccc2)c1-n1cccc1 (stereo unspecified)
829 s | Cc1nc(Nc2ccccn2)sc1C(=O)N1CCc2ccccc2C1
1040 s | O=S(=O)(c1cccc(-c2nnc(-c3ccccc3Br)o2)c1)N1CCCC1
714 s | CCN1c2cc(F)ccc2C(=O)NC12CCN(C(=O)c1ccc(F)cc1)CC2
1020 s | O=c1c2cc(-c3ccc4c(c3)OCO4)nn2ccn1Cc1nc(-c2ccc(F)cc2)no1
534 s | O=C(CCNc1cnc2cnccn12)Nc1ccc(N2CCOCC2)cc1
915 s | Cc1cccc(-n2ccnc(SCC(=O)Nc3cc(Cl)ccc3C)c2=O)c1
759 s | Cc1ccc(C)c(C(=O)NCC(C)(O)c2ccccc2)c1 (stereo unspecified)
1140 s | COc1ccc(-c2csc(NC(=O)c3ccc(Cl)c(Cl)c3)n2)cc1
849 s | COCCCNC(=O)C1CCCN(c2nccnc2Sc2ccccc2)C1 (stereo unspecified)
631 s | O=C(c1ccccn1)N1CCC(n2c(-c3ccoc3)nc3cccnc32)C1 (stereo unspecified)
920 s | CC1CCCN(S(=O)(=O)c2ccc(-n3cnc(C(=O)N4CCCCCC4)c3)nc2)C1 (stereo unspecified)

RP-LC retention time | SMILES
652 s | O=C(Cc1nc(-c2ccccn2)n[nH]1)Nc1ccc(F)cc1F
737 s | Cc1nc(CC(=O)Nc2ccc(F)cc2C)cs1
921 s | O=C(Nc1ccc(F)cc1)N1CCN(c2ccc(C(F)(F)F)cn2)CC1
917 s | CCn1cc(-c2ccc(F)cc2)cc1C(=O)NC1CC1
793 s | COc1cccc(CCC(=O)N2C[C@@H]3C[C@H](NC(=O)c4ccccc4)[C@H]2C3)c1
588 s | Cc1cnc(CCNC(=O)NCC(C)C)n1C1CCCCCC1
580 s | Cc1nn(C)cc1CN1CCC[C@H]1c1nc(-c2ccccc2)n[nH]1
762 s | CSc1ccccc1C(=O)N(CCc1ccccc1)Cc1ccccn1
660 s | COc1cc(OC)cc(C(=O)N2C[C@@H]3C[C@H](NC(=O)c4cccs4)[C@H]2C3)c1
1110 s | Cc1ccc(Nc2c(-c3ccccc3Cl)nc3ccc(Br)cn23)cc1
1040 s | Cc1sc(NC(=O)C2CCCCC2)nc1-c1ccc2c(c1)N(C)C(=O)CO2
990 s | CC1Oc2ccc(-c3csc(NC(=O)c4ccc(Br)cc4)n3)cc2NC1=O (stereo unspecified)
672 s | COc1ccc(SCC(=O)Nc2nnc(-c3ccno3)o2)cc1
1010 s | Cc1nc(-c2ccccc2)cc2nn(CC(=O)N3CCCc4ccccc43)c(=O)n12
858 s | CN(C)S(=O)(=O)c1ccc(C(=O)Nc2cccc([N+](=O)[O-])c2)cc1
830 s | Cc1ccc(-c2nnc(C3CN(C(=O)C4(c5ccccc5)CC4)CC34CCOCC4)o2)cc1 (stereo unspecified)
639 s | CCN1CCN(S(=O)(=O)c2ccc(/C=C\c3onc(C)c3NC(=O)C3CC3)cc2)CC1
734 s | CCCNc1nc(-c2ccc(OC)cc2)nc2ccccc12
890 s | CCCc1nnsc1C(=O)Nc1nnc(Cc2ccc(F)cc2)o1
626 s | CN1C(=O)CCc2cc(C(=O)NC3CC3)ccc21
918 s | COc1ccc(NC(=O)C2CCN(S(C)(=O)=O)c3cc(Cl)ccc3O2)cc1 (stereo unspecified)
720 s | CC1CCN(c2ccc(-c3noc(CN(C)C4CCCCC4)n3)cn2)CC1
894 s | Cc1cccc(CNC(=O)c2cccc(C3CCCN(C(=O)NC(C)C)C3)c2)c1 (stereo unspecified)

RP-LC retention time | SMILES
640 s | Cc1ccnc(N2CCC(C(=O)NCCc3ccco3)CC2)n1
802 s | O=C(NCc1cc(F)ccc1F)C1CCN(C(=O)c2ncn3c2COC(c2ccc(F)cc2)C3)CC1 (stereo unspecified)
587 s | c1cc2c(cc1OCc1cn(CC3CCCNC3)nn1)CCC2 (stereo unspecified)
729 s | CC1CCN(C(=O)c2cn(-c3cc(N4CCOCC4)ncn3)cn2)CC1
577 s | COc1cccc(CNC(=O)Cn2ccnc2-c2ccnc(N3CCCC3)c2)c1
996 s | COCCCN(CC(=O)N1CCc2sccc2C1COc1ccc(Cl)cc1)C(=O)NC(C)C (stereo unspecified)
1120 s | Cc1sc(-c2cc(C(F)(F)F)on2)cc1S(=O)(=O)N1CCC2(CC1)OCCO2
869 s | CCOC(=O)c1cc(S(=O)(=O)N2CCCC2C(=O)Nc2ccc3c(c2)OCCO3)cn1C (stereo unspecified)
955 s | Cc1cccc(S(=O)(=O)N2CCc3c(c(-c4nnc(-c5ccc(F)cc5)o4)nn3C)C2)c1
578 s | O=C(COc1ccccc1F)N1CC(c2nc3ccccc3[nH]2)C1
874 s | Cc1ccc(NC(=O)COc2nc(C)nc3ccccc23)c(Br)c1
1130 s | Cc1ccccc1-c1nc(C2CCN(S(=O)(=O)c3ccc4c(c3)CCC4)CC2)no1
629 s | C=C(C)C(=O)Nc1ccc(NC(C)C)cc1
810 s | Cc1ccc(S(=O)(=O)N2CCCC(C(=O)Nc3nnc(Cc4cccs4)o3)C2)cc1 (stereo unspecified)
879 s | Cc1ccc(CNC(=O)CCc2ccc3cc[nH]c3c2)cc1
608 s | c1ccc(-c2nc(CC3CCNC3)no2)cc1 (stereo unspecified)
1100 s | CC1=NS(=O)(=O)N(C)C=C1C(=O)OCc1nc(-c2ccc(OC(F)(F)F)cc2)no1
730 s | O=C(Nc1nccs1)C1CCCN(c2ncnc3c2nc2n3CCCCC2)C1 (stereo unspecified)
1010 s | CCOC(=O)Cn1c(=O)c2c(nc3n2CC(C)CN3c2ccc(Br)cc2)n(C)c1=O (stereo unspecified)
565 s | O=c1cccnn1CCNS(=O)(=O)c1cccnc1
732 s | CCCn1c(C)cnc1C1CN(S(=O)(=O)c2ccc(Cl)c(C)c2)C1
600 s | Cc1cc(NC(=O)C2=COCCO2)no1
1150 s | CCCn1cc(S(=O)(=O)N2CCN(c3ccccc3Cl)CC2)c2cccnc21

RP-LC retention time | SMILES
992 s | Cc1c(Cl)cccc1Nc1c(-c2ccc(Cl)cc2)nc2ncccn12
677 s | CCCCS(=O)(=O)N1CCC2(CC1)NCCCN=C2Nc1cccc(F)c1
996 s | Cc1ccc(S(=O)(=O)N2CCC(C(=O)NCc3csc(-c4ccccc4)n3)CC2)c(C)c1
836 s | O=C(O)c1nnn(-c2cccc(Br)c2)c1C(F)(F)F
841 s | COc1cccc(-c2noc(-c3cc(N4CCN(c5ccccn5)CC4)nc4ccccc34)n2)c1OC
909 s | CCc1ccc(-c2noc(CSc3nc4cc5c(cc4c(=O)n3Cc3ccncc3)OCO5)n2)cc1
622 s | CC(=O)N1CCC([C@@H]2CN(C(=O)c3ccc(Br)o3)C[C@H]2CO)CC1
773 s | CCOc1ccc(N2CCn3c2nn(CC(=O)c2ccc(OC)cc2)c(=O)c3=O)cc1
984 s | CCCCn1cc(S(=O)(=O)NCc2ccc(C)cc2)c2cccnc21
815 s | CCOc1ccc(NC(=O)c2oc3ccc(Br)cc3c2C)c2cccnc12
999 s | Cc1c(-c2noc(-c3ccc4c(c3)OCO4)n2)nnn1Cc1ccc(F)cc1
753 s | O=C(CSc1nnc(COc2ccccc2)o1)NCc1ccco1
642 s | OCc1nnn(-c2ccccc2)c1CO
957 s | CCn1cc(-c2ccc(Cl)cc2)cc1C(=O)N(C)C
733 s | CCn1cc(CCNC(=O)Nc2cccc(OC)c2)c2cccnc21
706 s | O=S(=O)(Cc1ccccc1F)N1CCCC(c2nn[nH]n2)C1 (stereo unspecified)
805 s | CCn1cc(S(=O)(=O)N2CCCn3nc(-c4ccc(OC)cc4)cc3C2)cn1
750 s | CCc1cccc(NS(=O)(=O)c2cc3n(c2)CCN(CCOC)C3=O)c1
774 s | O=C(C1CCN(c2cnn(Cc3ccccc3)c(=O)c2)CC1)N1CCCCCC1
594 s | CCCn1cc(-c2ccncc2)cc1C(=O)Nc1ccc(NC(C)=O)cc1
797 s | Cc1ccc(C)c(N2CCN(C(=O)c3cn4cc(C)ccc4n3)CC2)c1
988 s | CCC(C(=O)NCc1cccc(OC)c1OC)n1sc2ccccc2c1=O (stereo unspecified)
